Data from BindingDB's records for doi:10.1021/acs.jmedchem.7b00606 (Griffith University, 2017).

Biological target: Carbonic anhydrase 2 (Homo sapiens, UniProt P00918)
Test: Binding affinity to human carbonic anhydrase 2 by surface plasmon resonance spectrometry

Kd: > 2000 µM
SMILES: O=c1[nH]c(O)c(-c2ccccc2)[nH]1 [5-Phenyl-imidazolidine-2,4-dione]
